Reference: article PMC10653921 (mBio, 2023)

What was measured:
PA4915-LBD = target: T1, PA4915-LBD (Pseudomonas aeruginosa, UniProt Q9HUP8); format: binding; conditions: read-out: KD by ITC ^ b
T1 sequence (Q9HUP8 32-189 limits assumed): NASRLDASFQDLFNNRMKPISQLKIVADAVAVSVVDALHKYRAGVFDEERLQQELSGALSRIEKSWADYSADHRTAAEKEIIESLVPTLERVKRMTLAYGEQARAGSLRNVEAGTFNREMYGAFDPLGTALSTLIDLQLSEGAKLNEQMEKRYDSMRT

PctC-Tar = conditions: read-out: EC50 by FRET ^ a; attractant response, tethering buffer pH 7.0, Hill fit
PctB-LBD (PA4310) = target: T2, PctB-LBD (PA4310) (Pseudomonas aeruginosa, UniProt Q9HW91); format: binding; conditions: read-out: KD by ITC ^ b
T2 sequence (Q9HW91 32-276 limits assumed): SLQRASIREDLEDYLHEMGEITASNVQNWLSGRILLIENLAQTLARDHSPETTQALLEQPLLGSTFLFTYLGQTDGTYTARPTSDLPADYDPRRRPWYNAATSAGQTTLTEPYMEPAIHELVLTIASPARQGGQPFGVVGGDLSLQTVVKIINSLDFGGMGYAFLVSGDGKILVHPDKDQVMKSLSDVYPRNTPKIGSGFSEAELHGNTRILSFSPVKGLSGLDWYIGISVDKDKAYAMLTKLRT

PctB-Tar = conditions: read-out: EC50 by FRET ^ a; attractant response, tethering buffer pH 7.0, Hill fit
PctA-Tar = conditions: read-out: EC50 by FRET ^ a; attractant response, tethering buffer pH 7.0, Hill fit

Question: With `NCCc1ccccc1` [2-Phenylethylamine] as the molecule, how does the Kd (PA4915-LBD) read?
Answer: 58 ± 11 µM

Question: How did the EC50 (PctC-Tar) turn out when `NCCCCC(=O)O` [5-Aminovalerate] was run?
Answer: 1.5 ± 0.2 µM

Question: How did the Kd (PctB-LBD (PA4310)) turn out when `NCCC[C@H](N)C(=O)O` [L-Ornithine] was run?
Answer: 559 ± 80 µM

Question: What about the EC50 (PctB-Tar) of the same molecule?
Answer: 10.2 ± 0.8 µM

Question: And the EC50 (PctA-Tar)?
Answer: 1.8 ± 0.2 µM

Question: For `COC(=O)CCCN` [Methyl 4-aminobutyrate], which EC50 (PctC-Tar) is on record?
Answer: 2.9 ± 0.4 µM
